Assay results taken from ChEMBL document CHEMBL5247656, “Discovery of a Potent, Cooperative, and Selective SOS1 PROTAC ZZ151 with In Vivo Antitumor Efficacy in KRAS-Mutant Cancers” (J Med Chem, 2023).
Activity calls are given as the source filed them. No cut-off for these calls is given here.

What was measured:
MIA PaCa-2 = test: Antiproliferative activity against human MIA PaCa-2 cells harboring KRAS G12C mutant assessed as inhibition of cell proliferation incubated for 7 days by CellTiterGlo-3D proliferation assay; assay type: functional, cell-based; conditions: MIA PaCa-2, 168 h
[1] = biological target: T1, von Hippel-Lindau disease tumor suppressor/Son of sevenless homolog 1 (Homo sapiens) (UniProt Q07889+P40337); test: PROTAC activity at VHL/SOS1 in human HCT-116 cells harboring KRAS G13D mutant assessed as induction of SOS1 degradation at 1 uM incubated for 2 to 4 hrs by Immunoblot analysis; assay type: cell-based; conditions: time 2-4 hrs
T1 sequence (P40337 whole entry, looked up): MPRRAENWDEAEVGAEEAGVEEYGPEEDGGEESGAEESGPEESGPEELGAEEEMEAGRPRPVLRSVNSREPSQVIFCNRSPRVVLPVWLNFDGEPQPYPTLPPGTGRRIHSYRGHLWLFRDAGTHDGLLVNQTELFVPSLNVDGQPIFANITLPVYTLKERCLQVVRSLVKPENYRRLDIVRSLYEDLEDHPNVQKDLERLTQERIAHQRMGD
T1 sequence (Q07889 whole entry, looked up): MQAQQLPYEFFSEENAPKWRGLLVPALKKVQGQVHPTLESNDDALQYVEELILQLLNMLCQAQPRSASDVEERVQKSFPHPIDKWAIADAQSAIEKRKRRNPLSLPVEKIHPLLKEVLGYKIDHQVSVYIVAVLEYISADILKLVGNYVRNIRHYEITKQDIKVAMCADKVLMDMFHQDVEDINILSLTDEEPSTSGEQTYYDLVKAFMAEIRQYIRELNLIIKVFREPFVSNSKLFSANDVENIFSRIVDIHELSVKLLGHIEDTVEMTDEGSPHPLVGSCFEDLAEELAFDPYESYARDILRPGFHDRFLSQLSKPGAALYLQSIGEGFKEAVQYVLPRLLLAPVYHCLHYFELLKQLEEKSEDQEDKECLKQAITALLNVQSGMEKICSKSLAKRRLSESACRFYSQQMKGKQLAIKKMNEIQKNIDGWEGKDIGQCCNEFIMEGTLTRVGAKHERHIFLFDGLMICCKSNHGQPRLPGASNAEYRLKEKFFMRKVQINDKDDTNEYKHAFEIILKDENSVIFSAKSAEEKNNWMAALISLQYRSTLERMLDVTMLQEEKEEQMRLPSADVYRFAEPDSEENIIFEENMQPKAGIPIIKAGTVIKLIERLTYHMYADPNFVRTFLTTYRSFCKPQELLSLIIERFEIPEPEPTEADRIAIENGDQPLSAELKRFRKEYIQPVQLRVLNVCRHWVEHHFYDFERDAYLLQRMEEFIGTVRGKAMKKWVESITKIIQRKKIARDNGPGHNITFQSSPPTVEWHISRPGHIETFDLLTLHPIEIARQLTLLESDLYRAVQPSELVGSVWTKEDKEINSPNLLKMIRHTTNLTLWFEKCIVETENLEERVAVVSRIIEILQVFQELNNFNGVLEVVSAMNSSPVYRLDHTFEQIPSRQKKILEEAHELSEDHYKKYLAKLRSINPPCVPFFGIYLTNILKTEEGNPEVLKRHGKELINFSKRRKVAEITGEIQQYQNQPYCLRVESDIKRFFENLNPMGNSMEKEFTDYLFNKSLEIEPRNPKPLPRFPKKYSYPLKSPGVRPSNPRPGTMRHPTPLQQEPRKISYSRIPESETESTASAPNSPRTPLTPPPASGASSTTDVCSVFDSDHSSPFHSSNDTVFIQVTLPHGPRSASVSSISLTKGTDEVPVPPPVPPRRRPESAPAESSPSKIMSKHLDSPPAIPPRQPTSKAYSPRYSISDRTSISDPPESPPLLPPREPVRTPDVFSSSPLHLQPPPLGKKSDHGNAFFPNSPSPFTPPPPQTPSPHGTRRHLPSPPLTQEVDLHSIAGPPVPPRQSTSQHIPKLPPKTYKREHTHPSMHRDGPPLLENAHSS

[2] = biological target: T1, von Hippel-Lindau disease tumor suppressor/Son of sevenless homolog 1 (Homo sapiens); test: In vivo PROTAC activity at VHL/SOS1 in human ASPC1 cells harboring KRAS G12D mutant xenografted BALB/c nude mouse assessed as induction of SOS1 degradation administered intraperitoneally once daily for 3 weeks by immunohistochemistry analysis; assay type: functional; conditions: dose 10-20 mg/kg, route ip
ASPC1 = test: Antiproliferative activity against human ASPC1 cells harboring KRAS G12D mutant assessed as inhibition of cell proliferation incubated for 7 days by CellTiterGlo-3D proliferation assay; assay type: functional, cell-based; conditions: ASPC1, 168 h
[3] = biological target: T1, von Hippel-Lindau disease tumor suppressor/Son of sevenless homolog 1 (Homo sapiens); test: In vivo PROTAC activity at VHL/SOS1 in human SW620 cells harboring KRAS G12V mutant xenografted BALB/c nude mouse assessed as decrease in phosphorylated ERK expression in tumor at 10 to 20 mg/kg, ip administered once daily for 2 weeks by immunohistochemistry analysis; assay type: functional, organism-based; conditions: SW-620, dose 10-20 mg/kg
[4] = biological target: T1, von Hippel-Lindau disease tumor suppressor/Son of sevenless homolog 1 (Homo sapiens); test: PROTAC activity at VHL/SOS1 in human SW480 cells harboring KRAS G12V mutant assessed as induction of SOS1 degradation by measuring maximal efficacy at 1 to 2000 nM incubated for 24 hrs by Immunoblot analysis relative to control; assay type: cell-based; conditions: dose 1-2000 nM
[5] = biological target: T1, von Hippel-Lindau disease tumor suppressor/Son of sevenless homolog 1 (Homo sapiens); test: PROTAC activity at VHL/SOS1 in human Lovo cells harboring KRAS G13D mutant assessed as induction of SOS1 degradation by measuring maximal efficacy at 1 to 2000 nM incubated for 24 hrs by Immunoblot analysis relative to control; assay type: cell-based; conditions: dose 1-2000 nM
[6] = Toxicity in BALB/c nude mouse xenografted with human SW620 cells harboring KRAS G12V mutant assessed as body weight loss at 10 to 20 mg/kg, ip administered once daily for 2 weeks; assay type: organism-based, SW-620; conditions: in vivo, 336 h, dose 10-20 mg/kg
CAL-62 = test: Antiproliferative activity against human CAL-62 cells harboring KRAS G12R mutant assessed as inhibition of cell proliferation incubated for 7 days by CellTiterGlo-3D proliferation assay; assay type: functional, cell-based; conditions: time 7.0 day
[7] = biological target: T1, von Hippel-Lindau disease tumor suppressor/Son of sevenless homolog 1 (Homo sapiens); test: In vivo PROTAC activity at VHL/SOS1 in human SW620 cells harboring KRAS G12V mutant xenografted BALB/c nude mouse assessed as induction of SOS1 degradation at 10 to 20 mg/kg, ip administered once daily for 2 weeks by Immunoblot analysis; assay type: functional, organism-based; conditions: SW-620, dose 10-20 mg/kg
[8] = biological target: T1, von Hippel-Lindau disease tumor suppressor/Son of sevenless homolog 1 (Homo sapiens); test: PROTAC activity at VHL/SOS1 in human HCT-116 cells harboring KRAS G13D mutant assessed as induction of SOS1 degradation by measuring maximal efficacy at 1 to 2000 nM incubated for 24 hrs by Immunoblot analysis relative to control; assay type: cell-based; conditions: dose 1-2000 nM
[9] = biological target: T1, von Hippel-Lindau disease tumor suppressor/Son of sevenless homolog 1 (Homo sapiens); test: PROTAC activity at VHL/SOS1 in human SW620 cells harboring KRAS G12V mutant assessed as induction of SOS1 degradation at 1 uM incubated for 8 hrs by Immunoblot analysis; assay type: cell-based
[10] = biological target: T1, von Hippel-Lindau disease tumor suppressor/Son of sevenless homolog 1 (Homo sapiens); test: PROTAC activity at VHL/SOS1 in human NCI-H358 cells harboring KRAS G12C mutant assessed as induction of SOS1 degradation at 1 uM preincubated with MG132 for 4 hrs followed by compound treatment and measured after 24 hrs by Immunoblot analysis; assay type: cell-based
[11] = biological target: T1, von Hippel-Lindau disease tumor suppressor/Son of sevenless homolog 1 (Homo sapiens); test: PROTAC activity at VHL/SOS1 in human NCI-H358 cells harboring KRAS G12C mutant with shRNA lentivirus mediated VHL knockdown assessed as induction of SOS1 degradation at 1 uM incubated for 24 hrs by Immunoblot analysis; assay type: cell-based
[12] = Acute toxicity in BALB/c mouse assessed as body weight loss at 12.5 to 100 mg/kg, ip administered once daily for 7 days; assay type: organism-based; conditions: in vivo, 168 h, dose 12.5-100 mg/kg, time 7 day

COc1cc2nc(C)nc(N[C@H](C)c3cc(N)cc(C(F)(F)F)c3)c2cc1C1CCN(C(=O)CCCCCC(=O)N[C@H](C(=O)N2C[C@H](O)C[C@H]2C(=O)N[C@@H](C)c2ccc(-c3scnc3C)cc2)C(C)(C)C)CC1
IC50 (MIA PaCa-2): 10.1 nM | Activity [1]: Active | Activity [2]: Dose-Dependent Effect | IC50 (ASPC1): 6.97 nM | Activity [3]: Active | Emax [4]: > 95% | Emax [5]: > 95% | Activity [6]: Non-Toxic | inhibition (CAL-62): inactive | Activity [7]: Active | Emax [8]: > 95% | Activity [9]: Active | Activity [10]: inactive | Activity [11]: inactive | Activity [12]: Non-Toxic
